Tests used:
[1] = system: production of TNF-α by PBMC in response to stimulation by LPS; assay: TNF-α assay; type: cell-based, human; conditions: LPS 1 μg/ml, 72 hours, sandwich ELISA
Summary of the method: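 Cells were LPS-stimulated (1 μg/ml final) peripheral blood mononuclear cells at 10^6/ml, exposed 72 h at 37 °C to 0.1, 1 or 10 μM test compound.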

[2] = system: mixed lymphocyte reaction (PBMC with allogeneic PBMC or Eppstein-Barr Virus-transformed human B cells as stimulator cells); assay: Mixed lymphocyte reaction (MLR) assay; type: cell-based; conditions: lowest concentration giving 50% suppression of the MLR; [3H]-thymidine

COc1ccc(-c2cnc3nc(N)nc(N4CCN(Cc5cccc6ccccc56)CC4)c3n2)cc1OC [Example 158, 2-amino-4-((1-naphtylmethyl)-piperazin-1-yl)-6-(3,4-dimethoxyphenyl)pteridine]
IC50 [1]: 700 nM | IC50 [2]: 800 nM

COc1ccc(-c2cnc3nc(N)nc(N4CCN(c5ccccc5OC)CC4)c3n2)cc1OC [Example 160, 2-amino-4-((2-methoxyphenyl)-piperazin-1-yl)-6-(3,4-dimethoxyphenyl)pteridine]
IC50 [1]: 420 nM | IC50 [2]: 3800 nM

COc1ccc(-c2cnc3nc(N)nc(N4CCN(CCC#N)CC4)c3n2)cc1OC [Example 163, 2-amino-6-(3,4-dimethoxyphenyl)-4-(4-(3-propionitril)-piperazin-1-yl)pteridine]
IC50 [1]: 500 nM | IC50 [2]: 500 nM

COc1ccc(-c2cnc3nc(N)nc(N4CCN(CC(C)C)CC4)c3n2)cc1OC [Example 168, 2-amino-6-(3,4-dimethoxyphenyl)-4-(1-isobutyl-piperazin-1-yl)pteridine]
IC50 [1]: 90 nM | IC50 [2]: 1600 nM

COc1ccc(-c2cnc3nc(N)nc(N4CCN(c5cc(Cl)cc(Cl)c5)CC4)c3n2)cc1OC [Example 171, 2-amino-4-((3,5-dichlorophenyl)-piperazin-1-yl)-6-(3,4-dimethoxyphenyl)pteridine]
IC50 [1]: 500 nM | IC50 [2]: 3400 nM

COc1ccc(-c2cnc3nc(N)nc(N4CCN(Cc5ccccn5)CC4)c3n2)cc1OC [Example 177, 2-amino-6-(3,4-dimethoxyphenyl)-4-((2-pyridyl)methyl-piperazin-1-yl)pteridine]
IC50 [1]: 90 nM | IC50 [2]: 800 nM

COc1ccc(-c2cnc3nc(N)nc(N4CCN(CC5CCCN(C)C5)CC4)c3n2)cc1OC (stereo not drawn) [Example 179, 2-amino-6-(3,4-dimethoxyphenyl)-4-(1-(1-methyl-piperidin-3-yl-methyl)-piperazin-1-yl)pteridine]
IC50 [1]: 1800 nM | IC50 [2]: 7900 nM

COc1ccc(-c2cnc3nc(N)nc(N4CCN(c5ccc(C(F)(F)F)cc5[N+](=O)[O-])CC4)c3n2)cc1OC [Example 185, 2-amino-4-[4-trifluoromethyl-2-nitro-phenyl-piperazin-1-yl)-6-(3,4-dimethoxyphenyl)pteridine]
IC50 [1]: 500 nM | IC50 [2]: 1900 nM

COc1ccc(-c2cnc3nc(N)nc(N4CCN(c5ccc([N+](=O)[O-])cc5C(F)(F)F)CC4)c3n2)cc1OC [Example 186, 2-amino-4-[2-trifluoromethyl-4-nitro-phenyl-piperazin-1-yl)-6-(3,4-dimethoxyphenyl)pteridine]
IC50 [1]: 400 nM | IC50 [2]: 5000 nM

COc1ccc(-c2cnc3nc(N)nc(N4CCN(C(=O)Nc5cccc(Cl)c5)CC4)c3n2)cc1OC [Example 193, 2-amino-4-(N-3-chloro-phenyl-carbamoyl-piperazin-1-yl)-6-(3,4-dimethoxyphenyl)pteridine]
IC50 [1]: 500 nM | IC50 [2]: 36 nM

COc1ccc(-c2cnc3nc(N)nc(N4CCN(C(=O)Nc5cccc(C(F)(F)F)c5)CC4)c3n2)cc1OC [Example 195, 2-amino-4-(N-3-trifluoromethyl-phenyl-carbamoyl-piperazin-1-yl)-6-(3,4-dimethoxyphenyl)pteridine]
IC50 [1]: 700 nM | IC50 [2]: 36 nM

COc1cc(-c2cnc3nc(N)nc(N4CCN(c5ccc(C)cc5)CC4)c3n2)ccc1O [Example 206]
IC50 [1]: 700 nM | IC50 [2]: 500 nM

From US20070032477A1, “Pteridine derivatives useful for making pharmaceutical compositions” (priority 2003, published 2007)
